The text below walks through data of PMC7925390 (Frontiers in Microbiology, 2021).

Data set [1] has as its target T1, TsPYK (Thermoanaerobacterium saccharolyticum, UniProt I3VV25).
T1 construct: gene Tsac_1363; full length with extra-C domain; N-terminal 6XHis tag kept (6XHis-MBP-SUMO tag in later expression); expressed in E. coli FF50 / QTF60 (pykA pykF deleted); homotetramer
T1 sequence (I3VV25 1-583): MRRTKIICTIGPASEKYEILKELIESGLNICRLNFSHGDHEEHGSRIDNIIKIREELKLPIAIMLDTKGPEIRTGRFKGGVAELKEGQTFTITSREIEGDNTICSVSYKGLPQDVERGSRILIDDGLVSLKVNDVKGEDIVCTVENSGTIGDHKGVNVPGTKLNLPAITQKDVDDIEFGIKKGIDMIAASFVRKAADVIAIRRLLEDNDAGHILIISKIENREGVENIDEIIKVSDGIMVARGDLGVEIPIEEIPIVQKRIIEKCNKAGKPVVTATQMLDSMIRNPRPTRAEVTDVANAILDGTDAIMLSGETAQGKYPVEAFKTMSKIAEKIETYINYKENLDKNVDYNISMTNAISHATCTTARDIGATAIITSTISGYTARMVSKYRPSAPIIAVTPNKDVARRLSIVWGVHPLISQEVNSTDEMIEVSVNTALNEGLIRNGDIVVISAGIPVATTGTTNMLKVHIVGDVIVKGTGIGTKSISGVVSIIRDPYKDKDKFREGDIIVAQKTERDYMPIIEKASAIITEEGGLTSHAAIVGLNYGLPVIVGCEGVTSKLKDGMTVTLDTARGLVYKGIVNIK
Description: Kapp–PEP versus effector concentration, lactate dehydrogenase coupled assay. In kind it is biochemical. The settings on record: 10 mM ADP, 15 mM MgCl2, 30 °C.

For data set [2], the target named is T2, TsPYK extra-C domain truncated (Thermoanaerobacterium saccharolyticum, UniProt I3VV25).
T2 construct: gene Tsac_1363; N-terminal 6XHis-MBP-SUMO tag kept; expressed in E. coli QTF60
The data set is described as above. In kind it is biochemical. The settings on record: allosteric activator; 10 mM ADP, 15 mM MgCl2, 30 °C.

Data set [3] has as its target T1, TsPYK. Description: Kapp–PEP versus effector concentration, lactate dehydrogenase coupled assay, linkage fit. In kind it is biochemical. The settings on record: Kix in absence of PEP, 10 mM ADP, 15 mM MgCl2, 30 °C. An excerpt: Kapp–PEP versus effector concentration, lactate dehydrogenase coupled assay, linkage fit on TsPYK
In data set [4] the target is T3, E. coli Type A (Escherichia coli, UniProt P21599).
T3 construct: gene pykA; full length; no extra-C domain; N-terminal 6XHis-MBP-SUMO tag kept; expressed in E. coli QTF60
T3 sequence (P21599 whole entry): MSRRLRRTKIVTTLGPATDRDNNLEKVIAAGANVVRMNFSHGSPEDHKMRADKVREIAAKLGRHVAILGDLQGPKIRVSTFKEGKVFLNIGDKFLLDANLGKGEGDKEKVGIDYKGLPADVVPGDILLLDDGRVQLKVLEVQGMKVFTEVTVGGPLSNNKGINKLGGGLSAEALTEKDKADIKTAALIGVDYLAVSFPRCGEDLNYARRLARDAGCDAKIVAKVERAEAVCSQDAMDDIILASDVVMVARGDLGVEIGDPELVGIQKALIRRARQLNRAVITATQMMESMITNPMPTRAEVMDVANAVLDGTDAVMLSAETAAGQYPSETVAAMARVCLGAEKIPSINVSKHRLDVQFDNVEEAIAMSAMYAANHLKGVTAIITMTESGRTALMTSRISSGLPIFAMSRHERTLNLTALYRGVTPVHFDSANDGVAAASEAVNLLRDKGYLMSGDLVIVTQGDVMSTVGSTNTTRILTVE
The data set is described as follows: Kapp–PEP versus effector concentration, lactate dehydrogenase coupled assay. In kind it is biochemical. To be noted: allosteric activator; 10 mM ADP, 15 mM MgCl2, 30 °C.

Data set [5] addresses T4, C. bescii PYK (Caldicellulosiruptor bescii, UniProt A0ABY1S964).
T4 construct: gene SAMN05216240_1829; full length with extra-C domain; N-terminal 6XHis-MBP-SUMO tag kept; expressed in E. coli QTF60
Described as above. In kind it is biochemical. To be noted: allosteric activator; 10 mM ADP, 15 mM MgCl2, 30 °C.

Data set [6] deals with T2, TsPYK extra-C domain truncated. Description: lactate dehydrogenase coupled NADH assay, A340, Hill fit. The class given is biochemical. To be noted: 10 mM ADP, 15 mM MgCl2, 30 °C; no effector.
A further data set concerns the target T5, E. coli Type F (Escherichia coli, UniProt P0AD61).
T5 construct: gene pykF; full length; no extra-C domain; N-terminal 6XHis-MBP-SUMO tag kept; expressed in E. coli QTF60
Described as above. The settings on record: 10 mM ADP, 15 mM MgCl2, 30 °C; no effector. In kind it is biochemical.

In data set [7] the target is T3, E. coli Type A. Described as above. In kind it is biochemical. The settings on record: 10 mM ADP, 15 mM MgCl2, 30 °C; no effector.
The target in data set [8] is T4, C. bescii PYK. Described as above. The class given is biochemical. To be noted: 10 mM ADP, 15 mM MgCl2, 30 °C; no effector.
Substrate in data set [9]: C=C(OP(=O)(O)O)C(=O)O
Described as above. In kind it is biochemical, Thermoanaerobacterium saccharolyticum. The settings on record: 10 mM ADP, 15 mM MgCl2, 195 mM K+, 80 mM Na+, 50 mM HEPES, 30 °C, no effector, ± sign lost in table text. The source says:
lactate dehydrogenase coupled NADH assay, A340, Hill fit on TsPYK

Like-named read-outs stand apart in the source and are kept apart here.

T4 sequence (A0ABY1S964 entry or part of it): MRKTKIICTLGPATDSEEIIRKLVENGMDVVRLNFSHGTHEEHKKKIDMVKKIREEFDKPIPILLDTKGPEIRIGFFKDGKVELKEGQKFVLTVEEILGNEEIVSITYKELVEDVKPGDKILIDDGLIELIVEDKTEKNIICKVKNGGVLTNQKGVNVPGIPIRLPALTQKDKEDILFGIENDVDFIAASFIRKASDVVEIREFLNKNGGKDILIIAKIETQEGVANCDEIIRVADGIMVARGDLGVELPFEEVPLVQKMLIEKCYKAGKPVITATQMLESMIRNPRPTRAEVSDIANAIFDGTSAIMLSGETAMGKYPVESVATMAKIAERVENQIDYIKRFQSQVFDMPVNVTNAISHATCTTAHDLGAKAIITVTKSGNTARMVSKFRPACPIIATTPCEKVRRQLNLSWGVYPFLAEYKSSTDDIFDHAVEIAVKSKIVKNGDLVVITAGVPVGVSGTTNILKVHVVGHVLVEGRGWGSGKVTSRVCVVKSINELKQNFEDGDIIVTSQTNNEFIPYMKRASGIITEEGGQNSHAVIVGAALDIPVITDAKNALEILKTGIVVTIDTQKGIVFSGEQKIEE
T5 sequence (P0AD61 whole entry): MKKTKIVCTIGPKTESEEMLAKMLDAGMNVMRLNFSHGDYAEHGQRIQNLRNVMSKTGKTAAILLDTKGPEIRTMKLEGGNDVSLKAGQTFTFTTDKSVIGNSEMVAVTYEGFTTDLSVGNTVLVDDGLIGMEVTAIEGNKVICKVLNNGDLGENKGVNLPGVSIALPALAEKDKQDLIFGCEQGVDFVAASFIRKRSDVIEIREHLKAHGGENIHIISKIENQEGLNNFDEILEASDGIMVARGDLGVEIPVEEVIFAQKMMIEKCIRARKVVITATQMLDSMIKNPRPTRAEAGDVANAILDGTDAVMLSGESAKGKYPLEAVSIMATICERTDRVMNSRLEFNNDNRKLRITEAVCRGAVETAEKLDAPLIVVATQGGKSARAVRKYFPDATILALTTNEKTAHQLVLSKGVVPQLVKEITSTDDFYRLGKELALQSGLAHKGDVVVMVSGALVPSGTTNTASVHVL

Turning to `Nc1ncnc2c1ncn2[C@H]1C[C@H](O)[C@@H](COP(=O)(O)O)O1` [2-deoxyadenonsine-5′MP], the Kapp-PEP shift result at TsPYK [1] (allosteric activator) is reported as “generated a response very similar to AMP (slightly reduced binding)”.

As for `Nc1ncnc2c1ncn2[C@@H]1O[C@H](COP(=O)(O)O)[C@@H](O)[C@H]1O` [AMP], the Kapp-PEP shift entry in [2] is “Activation by AMP was not influenced by the removal of the extra-C domain”; on E. coli Type A [4], “the E. coli type A isozyme was activated by both AMP and IMP”; at C. bescii PYK [5], “the isozyme from C. bescii were inhibited by IMP and activated by AMP”. In addition, the Kd on TsPYK [3] (allosteric activator, ± sign lost in table text, read-out: Kix-AMP) was 90 ± 60 µM.

Take `Nc1nc2c(ncn2[C@@H]2O[C@H](COP(=O)(O)O)[C@@H](O)[C@H]2O)c(=O)[nH]1` [GMP]: the Kd at TsPYK [3] (allosteric inhibitor, ± sign lost in table text (printed 11), read-out: Kix-GMP) came out at 1000 ± 1000 µM.

Consider `C=C(OP(=O)(O)O)C(=O)O` [PEP], for which the Kapp-PEP result in data set [6] was “A comparison of responses to IMP and AMP for the full length TsPYK”; at E. coli Type F it was “The response of three bacterial PYK isozymes to AMP and IMP”; at E. coli Type A [7] it was “The response of three bacterial PYK isozymes to AMP and IMP”; at C. bescii PYK [8] it was “The response of three bacterial PYK isozymes to AMP and IMP”.

For `O=P(O)(O)OC[C@H]1OC(O)[C@H](O)[C@@H]1O` (some centres unmarked) [R5P], the Kd at TsPYK [3] (allosteric activator, ± sign lost in table text (printed 1110), read-out: Kix-R5P) was 11000 ± 10000 µM.

As for `O=P(O)(O)OC[C@H]1OC(O)(CO)[C@@H](O)[C@@H]1O` (some centres unmarked) [fructose-6-phosphate], the Kapp-PEP shift entry on TsPYK [1] (allosteric inhibitor) is “glyceraldehyde 3-phosphate, fructose-6-phosphate, IMP or GMP all caused reduced affinity for PEP”.

For `O=C[C@H](O)COP(=O)(O)O` [glyceraldehyde 3-phosphate], on TsPYK [1] (allosteric inhibitor), the Kapp-PEP shift result is “glyceraldehyde 3-phosphate, fructose-6-phosphate, IMP or GMP all caused reduced affinity for PEP”.

B1: TsPYK (Thermoanaerobacterium saccharolyticum JW/SL-YS485) (protein)
chain: MRRTKIICTIGPASEKYEILKELIESGLNICRLNFSHGDHEEHGSRIDNIIKIREELKLPIAIMLDTKGPEIRTGRFKGGVAELKEGQTFTITSREIEGDNTICSVSYKGLPQDVERGSRILIDDGLVSLKVNDVKGEDIVCTVENSGTIGDHKGVNVPGTKLNLPAITQKDVDDIEFGIKKGIDMIAASFVRKAADVIAIRRLLEDNDAGHILIISKIENREGVENIDEIIKVSDGIMVARGDLGVEIPIEEIPIVQKRIIEKCNKAGKPVVTATQMLDSMIRNPRPTRAEVTDVANAILDGTDAIMLSGETAQGKYPVEAFKTMSKIAEKIETYINYKENLDKNVDYNISMTNAISHATCTTARDIGATAIITSTISGYTARMVSKYRPSAPIIAVTPNKDVARRLSIVWGVHPLISQEVNSTDEMIEVSVNTALNEGLIRNGDIVVISAGIPVATTGTTNMLKVHIVGDVIVKGTGIGTKSISGVVSIIRDPYKDKDKFREGDIIVAQKTERDYMPIIEKASAIITEEGGLTSHAAIVGLNYGLPVIVGCEGVTSKLKDGMTVTLDTARGLVYKGIVNIK
notes: full length with extra-C domain; N-terminal 6XHis tag kept (6XHis-MBP-SUMO tag in later expression); expressed in E. coli FF50 / QTF60 (pykA pykF deleted); homotetramer
For the molecule B1, the K0.5 in data set [9] was 0.63 ± 0.03 mM.
